From patent publication US10597388B2, “Pyridazinone herbicides” (FMC CORPORATION, priority 2014, dated 2020)

How the values were obtained:
Assay in all cases: Test C greenhouse herbicide test, pre- and postemergence
Format in all cases: in vivo
[1] = tested on: barnyardgrass (Echinochloa crus-galli)
Procedure, shortened: (§1)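 Visual 0–100 injury score (100 = complete control) taken against untreated controls after 13–15 d in greenhouse. Test chemicals, formulated in solvent plus surfactant, applied preemergence to seeds in loam–sand soil or postemergence to 1- to 4-leaf plants (2–18 cm).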

[2] = tested on: blackgrass (Alopecurus myosuroides)
Procedure, shortened: as §1

corn (Zea mays) = tested on: corn (Zea mays)
Procedure, shortened: as §1

[3] = tested on: crabgrass, large (large crabgrass, Digitaria sanguinalis)
Procedure, shortened: as §1

[4] = tested on: foxtail, giant (giant foxtail, Setaria faberii)
Procedure, shortened: as §1

[5] = tested on: galium (catchweed bedstraw, Galium aparine)
Procedure, shortened: as §1

[6] = tested on: johnsongrass (Sorghum halepense)
Procedure, shortened: as §1

[7] = tested on: nutsedge, yellow (yellow nutsedge, Cyperus esculentus)
Procedure, shortened: as §1

[8] = tested on: ryegrass, Italian (Italian ryegrass, Lolium multiflorum)
Procedure, shortened: as §1

soybean (Glycine max) = tested on: soybean (Glycine max)
Procedure, shortened: as §1

[9] = tested on: velvetleaf (Abutilon theophrasti)
Procedure, shortened: as §1

[10] = tested on: wheat (winter wheat, Triticum aestivum)
Procedure, shortened: as §1

[11] = Postemergence, 31 g ai/ha, 0 to 100 scale (0 no effect, 100 complete control)
[12] = Postemergence, 125 g ai/ha, scale 0 to 100, 0 is no effect, 100 is complete control
[13] = Postemergence, 250 g ai/ha, scale 0 to 100, 0 no effect, 100 complete control, 13 to 15 d
[14] = Preemergence, 31 g ai/ha, scale 0 to 100, 0 is no effect, 100 is complete control
[15] = Preemergence, 62 g ai/ha, scale 0 to 100, 0 is no effect, 100 is complete control
[16] = Preemergence, 125 g ai/ha, scale 0 to 100, 0 is no effect, 100 is complete control
[17] = Preemergence, 250 g ai/ha, scale 0 to 100, 0 no effect, 100 complete control
[18] = postemergence, 62 g ai/ha, scale 0 to 100, 0 no effect, 100 complete control

## Cc1sc2ccccc2c1-c1c(O)c(Cl)nn(C)c1=O [Compound 89]
[1]; [11]
  Barnyardgrass plant response rating: 5
[1]; [12]
  Plant response rating, Barnyardgrass: 20
[1]; [13]
  Plant response rating, Barnyardgrass: 40
[1]; [14]
  Plant response rating, Barnyardgrass: 5
[1]; [15]
  Plant response rating, Barnyardgrass: 15
[1]; [16]
  Plant response rating, Barnyardgrass: 25
[1]; [17]
  Barnyardgrass plant response rating: 65
[1]; [18]
  Barnyardgrass plant response rating: 15
[2]; [11]
  Blackgrass plant response rating: 0
[2]; [12]
  Plant response rating, Blackgrass: 0
[2]; [13]
  Plant response rating, Blackgrass: 5
[2]; [14]
  Plant response rating, Blackgrass: 5
[2]; [15]
  Plant response rating, Blackgrass: 40
[2]; [16]
  Plant response rating, Blackgrass: 40
[2]; [17]
  Blackgrass plant response rating: 45
[2]; [18]
  Blackgrass plant response rating: 0
Corn (Zea mays); [11]
  Corn plant response rating: 5
Corn (Zea mays); [12]
  Plant response rating, Corn: 10
Corn (Zea mays); [13]
  Plant response rating, Corn: 5
Corn (Zea mays); [14]
  Plant response rating, Corn: 0
Corn (Zea mays); [15]
  Plant response rating, Corn: 0
Corn (Zea mays); [16]
  Plant response rating, Corn: 0
Corn (Zea mays); [17]
  Corn plant response rating: 0
Corn (Zea mays); [18]
  Corn plant response rating: 5
[3]; [12]
  Plant response rating, Crabgrass, Large: 5
[3]; [13]
  Plant response rating, Crabgrass, Large: 10
[3]; [14]
  Plant response rating, Crabgrass, Large: 20
[3]; [15]
  Plant response rating, Crabgrass, Large: 0
[3]; [16]
  Plant response rating, Crabgrass, Large: 25
[3]; [17]
  Crabgrass, Large plant response rating: 75
[3]; [18]
  Crabgrass, Large plant response rating: 5
[4]; [12]
  Plant response rating, Foxtail, Giant: 20
[4]; [13]
  Plant response rating, Foxtail, Giant: 30
[4]; [14]
  Plant response rating, Foxtail, Giant: 10
[4]; [15]
  Plant response rating, Foxtail, Giant: 60
[4]; [16]
  Plant response rating, Foxtail, Giant: 65
[4]; [17]
  Foxtail, Giant plant response rating: 75
[4]; [18]
  Foxtail, Giant plant response rating: 10
[5]; [12]
  Plant response rating, Galium: 95
[5]; [13]
  Plant response rating, Galium: 95
[5]; [14]
  Plant response rating, Galium: 95
[5]; [15]
  Plant response rating, Galium: 98
[5]; [16]
  Plant response rating, Galium: 98
[5]; [17]
  Galium plant response rating: 98
[5]; [18]
  Galium plant response rating: 95
[6]; [12]
  Plant response rating, Johnsongrass: 0
[6]; [13]
  Plant response rating, Johnsongrass: 5
[6]; [14]
  Plant response rating, Johnsongrass: 0
[6]; [15]
  Plant response rating, Johnsongrass: 75
[6]; [16]
  Plant response rating, Johnsongrass: 0
[6]; [17]
  Johnsongrass plant response rating: 5
[6]; [18]
  Johnsongrass plant response rating: 0
[7]; [12]
  Plant response rating, Nutsedge, Yellow: 70
[7]; [13]
  Plant response rating, Nutsedge, Yellow: 75
[7]; [14]
  Plant response rating, Nutsedge, Yellow: 60
[7]; [15]
  Plant response rating, Nutsedge, Yellow: 75
[7]; [16]
  Plant response rating, Nutsedge, Yellow: 80
[7]; [17]
  Nutsedge, Yellow plant response rating: 90
[7]; [18]
  Nutsedge, Yellow plant response rating: 60
[8]; [12]
  Plant response rating, Ryegrass, Italian: 75
[8]; [13]
  Plant response rating, Ryegrass, Italian: 80
[8]; [14]
  Plant response rating, Ryegrass, Italian: 20
[8]; [15]
  Plant response rating, Ryegrass, Italian: 80
[8]; [16]
  Plant response rating, Ryegrass, Italian: 90
[8]; [17]
  Ryegrass, Italian plant response rating: 90
[8]; [18]
  Ryegrass, Italian plant response rating: 75
Soybean (Glycine max); [12]
  Plant response rating, Soybean: 0
Soybean (Glycine max); [13]
  Plant response rating, Soybean: 0
Soybean (Glycine max); [14]
  Plant response rating, Soybean: 0
Soybean (Glycine max); [15]
  Plant response rating, Soybean: 0
Soybean (Glycine max); [16]
  Plant response rating, Soybean: 0
Soybean (Glycine max); [17]
  Soybean plant response rating: 5
Soybean (Glycine max); [18]
  Soybean plant response rating: 0
[9]; [12]
  Plant response rating, Velvetleaf: 75
[9]; [13]
  Plant response rating, Velvetleaf: 80
[9]; [14]
  Plant response rating, Velvetleaf: 70
[9]; [15]
  Plant response rating, Velvetleaf: 80
[9]; [16]
  Plant response rating, Velvetleaf: 90
[9]; [17]
  Velvetleaf plant response rating: 85
[9]; [18]
  Velvetleaf plant response rating: 75
[10]; [12]
  Plant response rating, Wheat: 0
[10]; [13]
  Plant response rating, Wheat: 0
[10]; [14]
  Plant response rating, Wheat: 0
[10]; [15]
  Plant response rating, Wheat: 0
[10]; [16]
  Plant response rating, Wheat: 0
[10]; [17]
  Wheat plant response rating: 0
[10]; [18]
  Wheat plant response rating: 0
